Our source for the MIC and CC50 values is ChEMBL document CHEMBL4513161, “CO-ADD screening of MMV (CH) - Pandemic Response Box” (2021).

≈ marks a conversion by molar mass, not a printed value.

In one test the test system is Staphylococcus aureus. Put plainly: microbe, parasite or virus in culture. The settings on record: ATCC 43300, 18 h, ASSAY_TEST Inhibition of Bacterial Growth, detection method Absorption (OD600), MEDIA CAMHB, plate type 384well, NBS, CORNING #3640.
The subject of a further test is Klebsiella pneumoniae. The experiment in a line: microbe, parasite or virus in culture. Particulars: ATCC 700603, 18 h, ASSAY_TEST Inhibition of Bacterial Growth, detection method Absorption (OD600), MEDIA CAMHB, plate type 384well, NBS, CORNING #3640.
For test [1], the system named is Pseudomonas aeruginosa. The experiment in a line: microbe, parasite or virus in culture. Particulars: ATCC 27853, 18 h, ASSAY_TEST Inhibition of Bacterial Growth, detection method Absorption (OD600), MEDIA CAMHB, plate type 384well, NBS, CORNING #3640.
Description: Antibacterial activity against Pseudomonas aeruginosa ATCC 27853 (CO-ADD:GN_042); MIC in CAMBH media using NBS plates, by OD(600)
Test [2] deals with Pseudomonas aeruginosa. The experiment in a line: Antibacterial activity against Pseudomonas aeruginosa PAO397 [PAO1 d(mexAB-oprM) d(mexCD-oprJ) d(mexEF-oprN) d(mexJKL) d(mexXY) d(opmH)] (CO-ADD:GN_211); MIC in CAMBH media using NBS plates, by OD(600). Format: functional. Particulars: ASSAY_TEST Inhibition of Bacterial Growth, detection method Absorption (OD600), MEDIA CAMHB, plate type 384well, CORNING #3640, time 18 hr.

The test system of another test is HEK293. Put plainly: cells. Format: functional, Homo sapiens, ATCC CRL1573. The settings on record: Homo sapiens, ATCC CRL1573, HEK293; ASSAY_TEST Inhibition of Cell Viability; detection method Resazurin; Fluorescence (ex560/em590); MEDIA DMEM with 10% FBS; plate type 384well; TC; CORNING #3712; time 18 hr; read-out: CC50.
The next test concerns Candida albicans. Put plainly: microbe, parasite or virus in culture. The settings on record: ATCC 90028, ASSAY_TEST Inhibition of Fungal Growth, detection method Absorption (OD530), plate type 384well, NBS, CORNING #3640.
The subject of another test is Acinetobacter baumannii. Put plainly: microbe, parasite or virus in culture. The settings on record: ATCC 19606, 18 h, ASSAY_TEST Inhibition of Bacterial Growth, detection method Absorption (OD600), MEDIA CAMHB, plate type 384well, NBS, CORNING #3640.
Another test has as its system Escherichia coli. The experiment in a line: microbe, parasite or virus in culture. Particulars: ATCC 25922, 18 h, ASSAY_TEST Inhibition of Bacterial Growth, detection method Absorption (OD600), MEDIA CAMHB, plate type 384well, NBS, CORNING #3640.

Description for Acinetobacter baumannii: Antibacterial activity against Acinetobacter baumannii ATCC 19606 (CO-ADD:GN_034); MIC in CAMBH media using NBS plates, by OD600
Description for Candida albicans: Antifungal activity against Candida albicans ATCC 90028 (CO-ADD:FG_001); MIC in YNB media using NBS plates, by OD630
Description for Cryptococcus neoformans: Antifungal activity against Cryptococcus neoformans H99 ATCC 208821 (CO-ADD:FG_002); MIC in YNB media using NBS plates, by Resazurin OD(600-570)
Description for Escherichia coli: Antibacterial activity against Escherichia coli ATCC 25922 (CO-ADD:GN_001); MIC in CAMBH media using NBS plates, by OD(600)
Description for Klebsiella pneumoniae: Antibacterial activity against Klebsiella pneumoniae MDR ATCC 70063 (CO-ADD:GN_003); MIC in CAMBH media using NBS plates, by OD(600)
Description for Staphylococcus aureus: Antibacterial activity against Staphylococcus aureus MRSA ATCC 43300 (CO-ADD:GP_020); MIC in CAMBH media, using NBS plates, by OD(600)

In the case of `Cc1[nH]c2ccccc2c1CC(=O)N[C@@H](Cc1ccccc1)C(=O)N(C)c1ccccc1`, the MIC with Staphylococcus aureus, in the test on Klebsiella pneumoniae, with Pseudomonas aeruginosa [1], in the test with Pseudomonas aeruginosa [2], in the test on Cryptococcus neoformans and in the test with Candida albicans was more than 20 µM each time. The MIC in the test with Acinetobacter baumannii and in the test on Escherichia coli was more than 20 µM throughout. The CC50 in the test on HEK293 was more than 20 µM.

In the case of `N#Cc1cc([N+](=O)[O-])ccc1Oc1ccccc1Cl`, the MIC in the test on Staphylococcus aureus, against Klebsiella pneumoniae, against Pseudomonas aeruginosa [1], with Pseudomonas aeruginosa [2], against Cryptococcus neoformans and against Candida albicans was more than 20 µM in each case. Also, the MIC in the test on Acinetobacter baumannii and against Escherichia coli was more than 20 µM in each case. In addition, the CC50 in the test with HEK293 is more than 20 µM.

On to `CS(=O)(=O)c1ccc(Oc2ccc(Cl)cc2)cc1`, for which the MIC in the test with Staphylococcus aureus, in the test with Klebsiella pneumoniae, in the test on Pseudomonas aeruginosa [1], in the test on Pseudomonas aeruginosa [2], against Cryptococcus neoformans and in the test with Candida albicans was more than 20 µM each time. Moreover, the MIC against Acinetobacter baumannii and against Escherichia coli was more than 20 µM each time. Further, the CC50 in the test on HEK293 was more than 20 µM.

On to `CCOC(=O)/C=C/[C@H](C[C@@H]1CCNC1=O)NC(=O)[C@H](CC)n1cccc(NC(=O)c2cc(C)on2)c1=O`, for which the MIC in the test with Staphylococcus aureus, with Klebsiella pneumoniae, against Pseudomonas aeruginosa [1], with Pseudomonas aeruginosa [2], against Cryptococcus neoformans and against Candida albicans was more than 20 µM in each case. The MIC against Acinetobacter baumannii and with Escherichia coli was more than 20 µM each time. Further, in the test on HEK293, the CC50 is more than 20 µM.

As for `Oc1cccc(C(Nc2nccs2)c2ccc3cccnc3c2O)c1` (stereo not given), the MIC in the test on Staphylococcus aureus, in the test with Klebsiella pneumoniae, in the test on Pseudomonas aeruginosa [1], in the test with Pseudomonas aeruginosa [2], against Cryptococcus neoformans and in the test with Candida albicans was more than 20 µM throughout. The MIC in the test with Acinetobacter baumannii and in the test on Escherichia coli was more than 20 µM each time. Also, the CC50 in the test with HEK293 stood at 6.67 µM.

For `O=C(c1ccc(F)cc1)N1CCN2C(=O)c3ccccc3C12c1ccccc1` (stereo not given), the MIC in the test on Staphylococcus aureus, with Klebsiella pneumoniae, against Pseudomonas aeruginosa [1], with Pseudomonas aeruginosa [2], against Cryptococcus neoformans and against Candida albicans was more than 20 µM in each case. For the same compound, the MIC against Acinetobacter baumannii and in the test with Escherichia coli was more than 20 µM in each case. Also, the CC50 with HEK293 was more than 20 µM.

For `CC(C)(C)c1ccc(Oc2ccc(N)cc2)cc1`, the MIC in the test on Staphylococcus aureus, against Klebsiella pneumoniae, in the test with Pseudomonas aeruginosa [1], in the test on Pseudomonas aeruginosa [2], in the test on Cryptococcus neoformans and with Candida albicans was more than 20 µM throughout. In addition, the MIC in the test with Acinetobacter baumannii and in the test with Escherichia coli was more than 20 µM each time. Besides, the CC50 in the test with HEK293 is more than 20 µM.

In the case of `Nc1cnn(C2OC(CO)C(O)C2O)c(=O)n1` (stereo not given), the MIC with Staphylococcus aureus, in the test on Klebsiella pneumoniae, with Pseudomonas aeruginosa [1], in the test on Pseudomonas aeruginosa [2], against Cryptococcus neoformans and in the test with Candida albicans was more than 20 µM throughout. For the same compound, the MIC in the test on Acinetobacter baumannii and in the test on Escherichia coli was more than 20 µM in each case. Also, the CC50 with HEK293 was more than 20 µM.

Consider `O=S(=O)(Nc1ccc(O)cc1)c1cccc2cccnc12`, for which the MIC in the test with Staphylococcus aureus, against Klebsiella pneumoniae, against Pseudomonas aeruginosa [1], with Pseudomonas aeruginosa [2], against Cryptococcus neoformans and in the test on Candida albicans was more than 20 µM throughout. Also, the MIC against Acinetobacter baumannii and in the test on Escherichia coli was more than 20 µM each time. Moreover, the CC50 in the test on HEK293 was more than 20 µM.

With `CC(=O)N1c2ccccc2NC2=C(C(=O)CC(C)(C)C2)C1c1ccc(OCc2ccccc2)cc1` (stereo not given), the MIC against Staphylococcus aureus, in the test with Klebsiella pneumoniae, against Pseudomonas aeruginosa [1], in the test with Pseudomonas aeruginosa [2], in the test on Cryptococcus neoformans and in the test on Candida albicans was more than 20 µM in each case. The MIC in the test on Acinetobacter baumannii and in the test on Escherichia coli was more than 20 µM throughout. Further, the CC50 with HEK293 was more than 20 µM.

With `C[C@H](NC(=O)C(=O)Nc1ccccc1C(C)(C)C)C(=O)N[C@@H](CC(=O)O)C(=O)COc1c(F)c(F)cc(F)c1F`, the MIC against Staphylococcus aureus, against Klebsiella pneumoniae, with Pseudomonas aeruginosa [1], against Pseudomonas aeruginosa [2], in the test with Cryptococcus neoformans and against Candida albicans was more than 20 µM each time. The MIC in the test on Acinetobacter baumannii and with Escherichia coli was more than 20 µM each time. The CC50 in the test on HEK293 is more than 20 µM.

For the compound `Cc1ccccc1NC(=O)Nc1cccc([N+](=O)[O-])c1`, the MIC in the test on Staphylococcus aureus, in the test with Klebsiella pneumoniae, with Pseudomonas aeruginosa [1], with Pseudomonas aeruginosa [2], against Cryptococcus neoformans and in the test on Candida albicans was more than 20 µM each time. Further, the MIC in the test with Acinetobacter baumannii and in the test on Escherichia coli was more than 20 µM in each case. In the test on HEK293, the CC50 is more than 20 µM.

Regarding `CCOC(=O)/C=C/[C@H](C[C@@H]1CCNC1=O)NC(=O)[C@@H](CC(=O)[C@@H](NC(=O)c1cc(C)on1)C(C)C)Cc1ccc(F)cc1`, the MIC against Staphylococcus aureus, against Klebsiella pneumoniae, against Pseudomonas aeruginosa [1], in the test with Pseudomonas aeruginosa [2], in the test with Cryptococcus neoformans and with Candida albicans was more than 20 µM each time. The MIC in the test with Acinetobacter baumannii and in the test with Escherichia coli was more than 20 µM in each case. The cytotoxic concentration (CC50) with HEK293 is more than 20 µM.

On to `Nc1nc(O)c2ncn([C@@H]3O[C@H](CO)[C@@H](O)[C@H]3F)c2n1`, for which the MIC against Staphylococcus aureus, against Klebsiella pneumoniae, with Pseudomonas aeruginosa [1], in the test on Pseudomonas aeruginosa [2], in the test on Cryptococcus neoformans and in the test with Candida albicans was more than 20 µM throughout. Further, the MIC against Acinetobacter baumannii and against Escherichia coli was more than 20 µM throughout. Moreover, in the test on HEK293, the cytotoxic concentration (CC50) is more than 20 µM.

With `NC1C2CC3CC(C2)CC1C3` (stereo not given), the MIC in the test with Staphylococcus aureus, against Klebsiella pneumoniae, in the test on Pseudomonas aeruginosa [1], with Pseudomonas aeruginosa [2], with Cryptococcus neoformans and with Candida albicans was more than 20 µM in each case. Moreover, the MIC in the test with Acinetobacter baumannii and in the test with Escherichia coli was more than 20 µM throughout. Moreover, in the test with HEK293, the cytotoxic concentration (CC50) was more than 20 µM.

With `COC1CC2CCC(C)C(O)(O2)C(=O)C(=O)N2CCCCC2C(=O)OC(C(C)CC2CCC(OCCO)C(OC)C2)CC(=O)C(C)/C=C(\C)C(O)C(OC)C(=O)C(C)CC(C)/C=C/C=C/C=C/1C` (stereo not given), the MIC is more than 20 µM against Staphylococcus aureus; more than 20 µM against Klebsiella pneumoniae; more than 20 µM with Pseudomonas aeruginosa [1]; more than 20 µM in the test on Pseudomonas aeruginosa [2]; not above 0.156 µM in the test with Cryptococcus neoformans; not above 0.156 µM in the test on Candida albicans. In addition, the MIC against Acinetobacter baumannii and against Escherichia coli was more than 20 µM throughout. In addition, the CC50 with HEK293 is more than 20 µM.

Take `O=C(NC1CCCc2c1[nH]c1ccc(Cl)cc21)c1ccccn1` (stereo not given): the MIC with Staphylococcus aureus was more than 20 µM; against Klebsiella pneumoniae it was more than 20 µM; with Pseudomonas aeruginosa [1], more than 20 µM; with Pseudomonas aeruginosa [2], 20 µM (≈ 6.52 µg/mL); against Cryptococcus neoformans it was more than 20 µM; in the test on Candida albicans it was more than 20 µM. Further, the MIC in the test with Acinetobacter baumannii and against Escherichia coli was more than 20 µM throughout. Also, the CC50 with HEK293 was more than 20 µM.

As for `COc1cc(C(C)(C)CCCC(C)C)cc(OC)c1OC`, the MIC against Staphylococcus aureus, in the test with Klebsiella pneumoniae, in the test with Pseudomonas aeruginosa [1], with Pseudomonas aeruginosa [2], in the test with Cryptococcus neoformans and against Candida albicans was more than 20 µM throughout. The MIC with Acinetobacter baumannii and with Escherichia coli was more than 20 µM throughout. Moreover, in the test on HEK293, the CC50 was more than 20 µM.

On to `CC(C)N(c1cc(-c2ccccc2)sc1C(=O)O)C(=O)[C@H]1CC[C@H](C)CC1`, for which the MIC with Staphylococcus aureus, in the test with Klebsiella pneumoniae, with Pseudomonas aeruginosa [1], in the test on Pseudomonas aeruginosa [2], against Cryptococcus neoformans and against Candida albicans was more than 20 µM throughout. Moreover, the MIC in the test on Acinetobacter baumannii and with Escherichia coli was more than 20 µM in each case. For the same compound, the CC50 in the test on HEK293 was more than 20 µM.

As for `Nc1nc(O)c(Br)c(-c2cccc(Cl)c2)n1`, the MIC in the test with Staphylococcus aureus, in the test on Klebsiella pneumoniae, against Pseudomonas aeruginosa [1], with Pseudomonas aeruginosa [2], with Cryptococcus neoformans and in the test with Candida albicans was more than 20 µM in each case. In addition, the MIC in the test on Acinetobacter baumannii and against Escherichia coli was more than 20 µM throughout. For the same compound, the CC50 in the test on HEK293 was more than 20 µM.
